Data published in patent publication EP0825187A1, “Condensed pyridazinyl guanidines, their production and use” (TAKEDA CHEMICAL INDUSTRIES, LTD., priority 1996, dated 1998).
Structures can show the parent of a compound that is named as a salt.

Biological target: T1, Na-H exchange (Rattus norvegicus, UniProt P26431)
T1 construct: The blood was centrifuged at 3000 r.p.m. for […] to obtain platelet rich plasma (PRP); from tissue; host or cells: platelets in platelet rich plasma from the blood of male Wistar rats
Assay: Inhibition of platelet swelling (light transmittance of platelet rich plasma after sodium propionate), indicator of Na-H exchange inhibition
Assay type: cell-based, Wistar rats
Settings: rat PRP, value one minute after sodium propionate solution (pH 6.7, 37 °C), difference between 1% DMSO and HOE-642 (10^-5 M) taken as 100
Method: Male Wistar rats (350-450 g) were anesthetized with sodium pentobarbital (50 mg/kg, i.p.). Using a disposable syringe pre-filled with 1.5 ml of a 3.8% citric acid solution, 8.5 ml of blood was collected from the abdominal aorta. The blood was centrifuged at 3000 r.p.m. for […] to obtain platelet rich plasma (PRP). The number of platelets in the PRP was counted by an automatic hemocytometer (Sysmex 2500, TOA Medical Electronics). The PRP was diluted with physiological saline to make the concentration of 40 x 10^4 platelets per microliter. A platelet aggregometer (Hematoracer, Niko Bioscience) was used for mesurement of the platelet swelling. 200 Microliters of the PRP was poured into a cuvette and 600 µl of a sodium propionate solution (Na propionate 135, glucose 10: HEPES 20, CaCl2 1, MgCl2 1, Units mM, pH 6.7) was added while stirring at 37 °C. The change in the light transmittance of PRP which was an indicator of the platelet swelling was recorded on a plotter. The test compound was added 3 minutes before addition of the sodium propionate solution. Test compounds were dissolved in dimethyl sulfoxide (DMSO). The final concentration of DMSO was adjusted to 1%. The values obtained one minute after addition of the sodium propionate solution were subjected to analysis. The rate of the inhibition of the test compound on the increase of the light transmittance was calculated designating the difference obtained between the treatments with 1% DMSO and HOE-642 (10^-5 M) as 100. […]

T1 sequence (P26431 whole entry): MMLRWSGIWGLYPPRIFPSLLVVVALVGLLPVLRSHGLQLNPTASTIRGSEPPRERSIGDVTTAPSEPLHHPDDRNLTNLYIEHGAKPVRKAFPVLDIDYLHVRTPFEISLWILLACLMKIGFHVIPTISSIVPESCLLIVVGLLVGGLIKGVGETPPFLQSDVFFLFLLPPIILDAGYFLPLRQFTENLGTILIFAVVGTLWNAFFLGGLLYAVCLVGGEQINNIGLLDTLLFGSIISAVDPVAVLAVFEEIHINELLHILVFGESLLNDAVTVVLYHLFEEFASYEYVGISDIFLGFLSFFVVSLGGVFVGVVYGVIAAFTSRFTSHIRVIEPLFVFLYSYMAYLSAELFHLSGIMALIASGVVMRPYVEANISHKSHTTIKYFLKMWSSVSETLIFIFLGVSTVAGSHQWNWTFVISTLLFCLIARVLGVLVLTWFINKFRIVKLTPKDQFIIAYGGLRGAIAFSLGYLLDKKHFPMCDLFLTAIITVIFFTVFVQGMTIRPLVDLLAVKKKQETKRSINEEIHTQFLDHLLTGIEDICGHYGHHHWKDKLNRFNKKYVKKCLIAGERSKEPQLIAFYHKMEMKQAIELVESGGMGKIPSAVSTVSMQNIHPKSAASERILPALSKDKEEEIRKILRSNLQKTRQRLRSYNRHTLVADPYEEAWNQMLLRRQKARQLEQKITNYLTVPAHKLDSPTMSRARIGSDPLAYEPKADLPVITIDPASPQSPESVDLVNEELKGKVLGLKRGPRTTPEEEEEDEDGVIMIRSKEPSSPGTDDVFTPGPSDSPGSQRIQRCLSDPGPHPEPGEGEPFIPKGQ

Compound | Inhibitory ratio (%) (1µM) | Inhibitory ratio (%) (3µM)
Cc1ccccc1-c1nnc(N=C(N)N)c2c(Br)cccc12 [Compound 24, 8-bromo-4-(2-methylphenyl)phthalazin-1-ylguanidine] | 62 | 78
NC(N)=Nc1nnc(-c2ccccc2)c2cccc(I)c12 [Compound 4, 8-iodo-4-phenylphthalazin-1-ylguanidine hydrochloride] | 66 | 78
NC(N)=Nc1nnc(-c2ccccc2)c2cccc(Br)c12 [Compound 13, 8-bromo-4-phenylphthalazin-1-ylguanidine] | 60 | 99
Cc1ccccc1-c1nnc(N=C(N)N)c2c(I)cccc12 [Compound 28, 8-iodo-4-(2-methylphenyl)phthalazin-1-ylguanidine] | 66 | 96

Now from value to compound:

Inhibitory ratio (%) (1µM) | Inhibitory ratio (%) (3µM) | Compound
58 | 78 | NC(N)=Nc1nnc(-c2ccc(F)cc2)c2cccc(I)c12 [Compound 36, 4-(4-fluorophenyl)-8-iodophthalazin-1-ylguanidine]
55 | 73 | 8-methyl-4-(2-methylphenyl)phthalazin-1-ylguanidine [Compound 44]
